Laboratory results taken from PMC12520456, “Regulating Enzyme Activity via Microaggregates Mediated by Phase Separation” (Advanced Science, 2025).
Non-standard residues stand in square brackets, D forms with d. Residues, ends and D or L forms follow the SMILES beside them.

Columns and labels:
[1] = system: Chymotrypsin; assay: Chymotrypsin activity assay (BTEE); format: biochemical; conditions: Figure 2C
Description: (§1) and the product's absorbance at […] was dynamically and real-time monitored using a microplate […]
During the chymotrypsin activity assay, DPMD was incorporated into chymotrypsin. The final concentration of chymotrypsin was set at 10 μg/mL, and the final concentration of DPMD was 5 mg/mL. In the corresponding control group, an equal volume of the buffer solution prepared by the kit was added. Subsequently, the enzyme-peptide mixture was added to the reaction system containing the substrate N-Benzoyl-L-Tyrosine Ethyl Ester (BTEE) at a ratio of 1:100 (where the proportion of the enzyme-peptide mixture solution was 1) for the detection of enzyme activity. The reaction was carried out at 25 ℃, and the product's absorbance at 256 nm was dynamically and real-time monitored using a microplate reader. The experimental result was represented by the enzyme reaction's degree of completion. All the tests were repeated three independent times.
NIH-3T3 cells were obtained from the National Collection of Authenticated Cell Cultures. HUVECs were obtained from Procell. All cells were maintained in DMEM media at 37°C with 5% CO₂. […] Cell viability was evaluated by the CCK-8 assay (Dojindo) at 1-, 3-, 5-, and 7-days post-treatment. […] The absorbance at 450 nm was recorded using a microplate reader […]

[2] = system: Trypsin; assay: Trypsin activity assay (BAEE); format: biochemical; conditions: Figure 2C
Description: Then, cells were co-incubated with Cy5-labeled proteins (trypsinCy5 and chymotrypsinCy5) and DPMD treated proteins Cy5 for 30 min. Subsequently, cells were washed thrice with PBS, fixed with 4% paraformaldehyde, and the nucleus was dyed with DAPI. Observations were performed using a confocal microscope (Olympus, FV3000). This experiment was repeated three independent times. The mean fluorescence intensity was measured using Image J software. The fluorescence values were calculated after background subtraction (fluorescence intensity of regions without cells).
3.8 Measurements of ThT fluorescence
The 0.5% (w/v) aqueous peptide solutions, enzyme solutions, and peptide-enzyme mixtures were supplemented with thioflavin T (ThT, 100 μM, Aladdin). ThT Fluorescence assay was measured on a Steady-state and lifetime Fluorescence Spectrometer (FLS1000). […]
as §1
During the chymotrypsin activity assay, DPMD was incorporated into chymotrypsin. […] The reaction was carried out at 25 ℃, and the product's absorbance at 256 nm was dynamically and real-time monitored using a microplate reader. […]
NIH-3T3 cells were obtained from the National Collection of Authenticated Cell Cultures. […] Cell viability was evaluated by the CCK-8 assay (Dojindo) at 1-, 3-, 5-, and 7-days post-treatment. […]

[3] = In vivo safety after intraperitoneal injection; design: species or system rat
Excerpt: For in vivo safety, rats receiving an intraperitoneal injection of DPMD were monitored for systemic toxicity and immune response. […] The heart and spleen likewise appeared normal, with no myocardial inflammation or splenic white pulp enlargement (Figure 5G,H). […] We acknowledge that longer‐term studies will be needed, but these initial results support the biosafety of DPMD as a therapeutic agent.
Figure 5 The favorable biosafety and biocompatibility of DPMD. A) The schematic diagram of therapeutic safety benefited from the DPMD. B&C) The blood corpuscle counting and immunotoxicity‐related blood biochemical indexes of rats treated with the DPMD or PBS using intraperitoneal administration. D) Hepatotoxicity measured by pathological section of liver, ALT (glutamic‐pyruvic transaminase), AST (glutamic‐oxalacetic transaminase), total bilirubin (TBIL) and inflammatory cytokines (IL‐6, TNF‐α, MCP‐1and NF‐κB) of liver. E) Nephrotoxicity test, including pathological section of kidney, CR (creatinine), BUN (Blood Urea Nitrogen), albumin (ALB) and inflammatory cytokines (IL‐6, TNF‐α, MCP‐1and NF‐κB) of kidney. […] G) Cardiotoxicity reflected by pathological section and inflammatory cytokines (IL‐6, TNF‐α, MCP‐1and NF‐κB) infiltrating in heart. H) The H&E staining of spleen sections, and IL‐6, TNF‐α, MCP‐1and NF‐κB cytokines were involved in safety detection of DPMD or PBS in spleen. The data from each group were presented as the mean ± SD. Scale bar: 100 µm. Statistical analysis in B‐G was performed using unpaired t‐test.

[4] = intraperitoneal injection, 7 days post-treatment

With CC[C@@H](C)[C@@H](NC(=O)[C@@H](CCC(N)=O)NC(=O)[C@H](NC(=O)[C@@H](Cc1ccc(O)cc1)NC(=O)CNC(=O)[C@@H](CC(C)C)NC(=O)[C@H](NC(=O)[C@@H](CO)NC(=O)CNC(=O)[C@@H](C)NC(=O)[C@@H](CC(=O)O)NC(=O)[C@@H](C)NC(=O)[C@@H](CCCNC(=N)N)NC(=O)[C@@H](C)NC(=O)[C@@H](CC(=O)O)NC(=O)[C@@H](C)NC(=O)[C@@H](CCCNC(=N)N)NC(=O)[C@@H](C)NC(=O)[C@@H](CC(=O)O)NC(=O)[C@@H](C)NC(=O)[C@@H](CCCNC(=N)N)NC(=O)[C@@H](C)NC(=O)[C@@H](CC(=O)O)NC(=O)[C@@H](C)NC(=O)[C@H](N)CCCNC(=N)N)C(C)C)[C@H](C)CC)C(=O)N[C@H](CCCNC(=N)N)C(=O)O [DPMD, Ac‐(D‐RADA)4‐CONH2] (H-[dR][dA][dD][dA][dR][dA][dD][dA][dR][dA][dD][dA][dR][dA][dD][dA]G[dS][dV][dL]G[dY][dI][dQ][dI][dR]-OH; N-terminus and C-terminus assumed) the “suppression of enzymatic activity of Chymotrypsin” value [1] was “almost complete extent”, the “suppression of enzymatic activity of Trypsin” value [2] was “almost complete extent” and the “blood cell counts (red and white cells, platelets)” value [3, 4] was “remained within normal limits”. For the same compound, the “liver function tests (ALT, AST, total bilirubin) and kidney function markers (creatinine, BUN, albumin)” value [3, 4] was “no signs of organ damage or dysfunction”, the “serum pro-inflammatory cytokine levels (IL-6, TNF-α, MCP-1, NF-κB)” value [3, 4] was “indistinguishable from saline‐treated controls” and the “histopathological examination of major organs” value ([3]; liver, kidney, lung, heart, spleen, H&E) was “no microscopic evidence of toxicity”.
